Results on 68 compounds are retold here after PubChem BioAssay AID1896 (NMMLSC, 2009).

Calls of active or inactive are those of the source. How the calls were made is not given here.

For this assay, the target named is Mitogen-activated protein kinase kinase kinase 3 (Homo sapiens) (UniProt Q99759). As to the kind of experiment: inhibitors of MEK5 binding to MEKK3, dose response, biochemical, bead multiplex flow cytometry, wildtype (AID 1896). The following applies: bead-based multiplex flow cytometry, MEK5-MEKK3 PB1 binding; for Ki: measured here: Ki from EC50. For orientation: In flow cytometry, cells or beads pass a laser one at a time.
Chain of Mitogen-activated protein kinase kinase kinase 3 (Homo sapiens) (Q99759 whole entry, looked up): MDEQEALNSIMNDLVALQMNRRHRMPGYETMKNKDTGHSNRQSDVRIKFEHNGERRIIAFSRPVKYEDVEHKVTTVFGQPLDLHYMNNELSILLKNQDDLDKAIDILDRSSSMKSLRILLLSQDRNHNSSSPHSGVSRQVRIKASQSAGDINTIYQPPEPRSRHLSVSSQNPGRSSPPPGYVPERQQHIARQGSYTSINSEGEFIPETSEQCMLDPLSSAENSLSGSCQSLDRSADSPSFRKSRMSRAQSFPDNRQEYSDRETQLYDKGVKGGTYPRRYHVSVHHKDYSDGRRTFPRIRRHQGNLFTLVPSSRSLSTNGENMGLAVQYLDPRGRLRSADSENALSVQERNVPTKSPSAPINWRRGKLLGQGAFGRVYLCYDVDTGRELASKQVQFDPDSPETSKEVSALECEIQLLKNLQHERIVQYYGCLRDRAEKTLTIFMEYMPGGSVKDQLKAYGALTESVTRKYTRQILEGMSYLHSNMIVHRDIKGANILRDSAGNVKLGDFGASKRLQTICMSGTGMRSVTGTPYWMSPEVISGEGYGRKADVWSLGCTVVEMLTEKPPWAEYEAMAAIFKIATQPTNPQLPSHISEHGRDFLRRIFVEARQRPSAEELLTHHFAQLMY

What is called EC50 is the midpoint of the concentration-response curve. For `CCCCCCCCCCCCCCCC[n+]1ccc(/C=N/O)cc1`, the EC50 is > 30 µM (inactive).

With `C#CCOCCOCCOCCNc1nc(N2CCN(C(=O)[C@H](Cc3cc4ccccc4[nH]3)n3cc([C@@H](N)CC(C)C)nn3)CC2)nc(N2CCN(C(=O)[C@H](Cc3cc4ccccc4[nH]3)n3cc([C@@H](N)CC(C)C)nn3)CC2)n1`, the EC50 was > 30 µM (inactive).

For the compound `FC(F)(F)c1cccc(NC(=S)N(CCCN2CCCC2)Cc2cccn2Cc2ccc(Cl)cc2)c1`, the EC50 was > 30 µM (inactive).

With `C#CCOCCOCCOCCNc1nc(N2CCN(C(=O)[C@H](Cc3ccc(O)cc3)n3cc([C@@H](N)CC(C)C)nn3)CC2)nc(N2CCN(C(=O)[C@H](Cc3cc4ccccc4[nH]3)n3cc([C@@H](N)CC(C)C)nn3)CC2)n1`, the EC50 was > 30 µM (inactive).

Take `CCOc1ccc(C2=C/C(=C/c3cccnc3)C(=O)O2)cc1`: the EC50 was > 30 µM (inactive).

With `CCCCCCCCCCOC(=O)Cn1c(COc2ccccc2OC)[n+](C)c2ccccc21`, the EC50 is > 30 µM (inactive).

For `CCN1/C(=C/C=C/C=C/C=C/c2sc3ccccc3[n+]2CC)Sc2ccccc21`, the EC50 is > 30 µM (inactive).

For orientation: Ki means the equilibrium dissociation constant of an inhibitor or competing ligand from its target. Consider `C#CCOCCOCCOCCNc1nc(N2CCN(C(=O)[C@H]([C@@H](C)CC)n3cc([C@@H](N)CO)nn3)CC2)nc(N2CCN(C(=O)[C@H](Cc3cc4ccccc4[nH]3)n3cc([C@@H](N)Cc4ccc(O)cc4)nn3)CC2)n1`, for which the EC50 was 8.28 µM and the Ki amounted to 7.08 µM.

Regarding `O=C(c1cc(COc2c(F)cccc2F)on1)N1C[C@H]2CC[C@H]1C2`, the EC50 is > 30 µM (inactive).

For the compound `COc1ccc(Cn2c(SCc3ccccc3C)nc3cc(OC)c(OC)cc3c2=N)cc1`, the EC50 was > 30 µM (inactive).

On to `CNC(=O)C(=O)Nc1c(C)cc(C)cc1C`, for which the EC50 is > 30 µM (inactive).

`Cc1ccccc1OCC(O)CNC1CCC(NCC(O)COc2ccccc2C)CC1` (stereo not drawn): the EC50 is > 30 µM (inactive).

On to `Cc1ccc(CN2CCSc3ccc(C(=O)NC4CCN(Cc5ccccc5)CC4)cc32)cc1`, for which the EC50 is > 30 µM (inactive).

`O=C(OCC1O[C@@H](OC(=O)c2cc(O)c(O)c(O)c2)[C@@H](OC(=O)c2cc(O)c(O)c(O)c2)[C@@H](OC(=O)c2cc(O)c(O)c(O)c2)[C@@H]1OC(=O)c1cc(O)c(O)c(O)c1)c1cc(O)c(O)c(O)c1` (stereo partly drawn): the EC50 is > 30 µM (inactive).

For the compound `CCCCCc1cc(=O)oc2c(C(CCN3CCCC3)c3ccc(N(C)C)cc3)c(OC)cc(OC)c12` (stereo not drawn), the EC50 was > 30 µM (inactive).

With `CCc1ccc(Nc2n[n+](-c3ccccc3)c(-c3cc(OC)c(OC)cc3Br)s2)cc1`, the EC50 was > 30 µM (inactive).

On to `CN1C(=CC=C2C=C(I)C(=O)C(I)=C2)C(C)(C)c2ccccc21`, for which the EC50 is > 30 µM (inactive).

For the compound `CN(C)CCCNc1cc(C(C)(C)C)nc2c(-c3ccc(Cl)cc3)cnn12`, the EC50 is > 30 µM (inactive).

Turning to `CS(=O)(=O)N1N=C(c2ccccc2)CC1c1ccc2c(c1)OCO2` (stereo not drawn), the EC50 was > 30 µM (inactive).

In the case of `O=C(Nc1ccc(Cl)cn1)c1ccc2c(Cl)c3c(nc2c1)CCC3`, the EC50 was > 30 µM (inactive).

In the case of `C#CCOCCOCCOCCNc1nc(N2CCN(C(=O)[C@H]([C@@H](C)CC)n3cc([C@@H](N)Cc4ccc(O)cc4)nn3)CC2)nc(N2CCN(C(=O)[C@H](Cc3cc4ccccc4[nH]3)n3cc([C@@H](N)C(C)CC)nn3)CC2)n1` (stereo partly drawn), the EC50 was > 30 µM (inactive).

As for `CCN1CCN(CCNC(=O)c2ccc(/C=C3/Sc4ccccc4N(Cc4cccc(C)c4)C3=O)cc2)CC1`, the EC50 was > 30 µM (inactive).

In the case of `CCCOc1ccc2c(c1)C(=NN=C(N)N)c1cc(OCCC)ccc1-2`, the EC50 is > 30 µM (inactive).

For `O=C(Nc1ccc(C2=NCCN2)cc1)c1ccc(C(=O)Nc2ccc(C3=NCCN3)cc2)c([N+](=O)[O-])c1`, the 50% effective concentration (EC50) was 11.9 µM and the Ki amounted to 10.2 µM.

In the case of `CCN1/C(=C/c2ccc3cc(C)cc(C)c3[n+]2CC)Sc2cc(C)ccc21`, the concentration giving a half-maximal response (EC50) was 10.6 µM and the inhibition constant Ki was determined as 9.04 µM.

For the compound `C#CCOCCOCCOCCNc1nc(N2CCN(C(=O)[C@H](Cc3cc4ccccc4[nH]3)n3cc([C@@H](N)C(C)CC)nn3)CC2)nc(N2CCN(C(=O)[C@H](CCCCN)n3cc([C@@H](N)CC(C)C)nn3)CC2)n1` (stereo partly drawn), the EC50 is > 30 µM (inactive).

Take `C#CCOCCOCCOCCNc1nc(N2CCN(C(=O)[C@H]([C@@H](C)CC)n3cc([C@@H](N)CC(C)C)nn3)CC2)nc(N2CCN(C(=O)[C@H](Cc3cc4ccccc4[nH]3)n3cc([C@@H](N)CC(C)C)nn3)CC2)n1`: the EC50 is > 30 µM (inactive).

Regarding `CN(C)c1ccc(/C=C/C=C2/SC(=S)N(c3ccccc3)C2=O)cc1`, the EC50 was 1.21 µM and the inhibition constant Ki turned out to be 1.03 µM.

Turning to `COc1ccc(-c2csc(N(CCCN(C)C)C(=O)c3ccccc3Cl)n2)cc1`, the EC50 was > 30 µM (inactive).

`CCCCCCCCCCOC(=O)Cn1c(COc2ccc(OC)cc2)[n+](C)c2ccccc21`: the EC50 was > 30 µM (inactive).

As for `CCCCCc1cc(=O)oc2c(C(CCN3CCCCC3)c3ccc(OC)cc3)c(OC)cc(OC)c12` (stereo not drawn), the EC50 is > 30 µM (inactive).

In the case of `CCN1CCN(Cc2ccc(NC(=O)c3cc(NC(=O)C(=O)c4c[nH]c5ccccc45)cc(OC)c3)cc2C(F)(F)F)CC1`, the EC50 is > 30 µM (inactive).

For the compound `O=C1c2ccccc2-c2onc3ccc(NCCCn4ccnc4)c1c23`, the EC50 is > 30 µM (inactive).

`Nc1ccc(N)c(C(=O)O)c1`: the EC50 is 3.06 µM and the inhibition constant (Ki) was found to be 2.62 µM.

In the case of `CCCCCCCCCCOC(=O)Cn1c(COc2cccc(C)c2)[n+](C)c2ccccc21`, the EC50 is > 30 µM (inactive).

As to `COCc1c(C#N)c(NCCc2ccccc2)nc(C)c1[N+](=O)[O-]`, the EC50 was > 30 µM (inactive).

Take `CCCN(CCC)CCNC(=O)c1cc2c(-c3ccc(Cl)cc3)nn(C)c2s1`: the EC50 was > 30 µM (inactive).

`CC[n+]1c(/C=C/C=C/N(C(C)=O)c2ccccc2)sc2ccccc21`: the EC50 was > 30 µM (inactive).

Regarding `CCCCCc1cc(=O)oc2c(C(CCN3CCCCC3)c3ccc4c(c3)OCO4)c(OC)cc(OC)c12` (stereo not drawn), the EC50 is > 30 µM (inactive).

Take `N#CC(C#N)=c1ccc2c(c1)N1C(c3ccccc3)=CC(c3ccccc3)C3CCCCC31N=2` (stereo not drawn): the EC50 is 1.63 µM and the inhibitory constant (Ki) was determined as 1.4 µM.

In the case of `Nc1ccc2nc(-c3ccc(-c4nc5ccc(N)cc5[nH]4)cc3)[nH]c2c1`, the EC50 is > 30 µM (inactive).

Regarding `Cc1nn2c(N)csc2nc1=O`, the half-maximal effective concentration (EC50) was 4.14 µM and the inhibition constant Ki was 3.54 µM.

Turning to `COc1ccccc1N1CCN(S(=O)(=O)c2ccc(Cl)s2)CC1`, the EC50 is > 30 µM (inactive).

As to `COc1ccc2nc3cc(Cl)ccc3c(Nc3cc(C(C)C)c(O)cc3C)c2c1`, the EC50 was > 30 µM (inactive).

Regarding `CCC(/C=C1\Sc2ccc(OC)cc2N1CC)=C\c1sc2ccc(OC)cc2[n+]1CCCS(=O)(=O)[O-]`, the EC50 was > 30 µM (inactive).

As for `CCCCn1c(O)c(/C=C/C=C/C=Nc2ccccc2)sc1=S`, the EC50 was 1.29 µM and the inhibition constant (Ki) is 1.1 µM.

Consider `COc1ccc(CSc2n[nH]c(C)n2)cc1[N+](=O)[O-]`, for which the EC50 is > 30 µM (inactive).

Consider `CC(=O)Nc1ccc(OCC(O)Cn2c3ccccc3c3ccccc32)cc1` (stereo not drawn), for which the EC50 was > 30 µM (inactive).

For `CCOC(=O)c1c(C)n(-c2ccc(C)cc2)c2ccc(OCC(O)CN3CCN(C)CC3)cc12` (stereo not drawn), the EC50 was > 30 µM (inactive).

As to `CCN1/C(=C\c2ccc3cc(C)ccc3[n+]2CC)Sc2cc(C)c(C)cc21`, the 50% effective concentration (EC50) is 9.27 µM and the inhibitory constant (Ki) came out at 7.93 µM.

In the case of `CN(c1ccccc1)c1ccc(/C=c2\s/c(=C(/C#N)C(=O)C(C)(C)C)n(Cc3ccco3)c2=O)cc1`, the EC50 was 0.34 µM and the inhibitory constant (Ki) came to 0.29 µM.

In the case of `CCc1ccc(Nc2n[n+](-c3ccccc3)c(-c3ccc(OCc4ccccc4)cc3)s2)cc1`, the EC50 is > 30 µM (inactive).

In the case of `CCOC(=O)C1=C(c2ccccc2)NC(N)=NC1c1ccc(OCc2ccc(Cl)cc2)c(OC)c1` (stereo not drawn), the EC50 is > 30 µM (inactive).

Consider `CCc1ccc(Nc2n[n+](-c3ccccc3)c(-c3ccc(OC)c(Br)c3)s2)cc1`, for which the EC50 is > 30 µM (inactive).

In the case of `CCOC(=O)C1=C(c2ccccc2)NC(N)=NC1c1ccc(OCc2ccc(C(=O)OC)cc2)cc1` (stereo not drawn), the EC50 is > 30 µM (inactive).

Consider `CCN1/C(=C/c2ccc3cc(C)ccc3[n+]2CC)Sc2cc(C)c(C)cc21`, for which the concentration for a half-maximal effect (EC50) was 5.79 µM and the Ki was determined as 4.96 µM.

In the case of `CCN1C(c2ccccc2)=C(c2ccccc2)S/C1=C/C=C1\SC(=S)N(C)C1=O`, the EC50 was 3.4 µM and the Ki worked out at 2.91 µM.

As to `OCCCCNCc1ccc(OCc2ccc(Cl)cc2Cl)cc1`, the EC50 was > 30 µM (inactive).

On to `COc1cccc(OC)c1-c1nn2c(-c3cc(-c4ccccc4)n[nH]3)nnc2s1`, for which the EC50 is 5.37 µM and the Ki was 4.59 µM.

`C#CCOCCOCCOCCNc1nc(N2CCN(C(=O)[C@H]([C@@H](C)CC)n3cc([C@@H](N)CO)nn3)CC2)nc(N2CCN(C(=O)[C@H](Cc3cc4ccccc4[nH]3)n3cc([C@@H](N)C(C)CC)nn3)CC2)n1` (stereo partly drawn): the EC50 was > 30 µM (inactive).

`CC(C)N=c1cc2n(-c3ccc(Cl)cc3)c3ccccc3nc-2cc1Nc1ccc(Cl)cc1`: the EC50 was > 30 µM (inactive).

Take `CCOc1cccc2sc(N(CCCN(C)C)C(=O)c3ccc(S(=O)(=O)N4CCc5ccccc5C4)cc3)nc12`: the EC50 was > 30 µM (inactive).

With `O=C(NNc1c2ccccc2nc2ccccc12)c1cc2ccccc2cc1O`, the EC50 was > 30 µM (inactive).

As for `CNc1nc(-c2c[nH]c3ccccc23)cs1`, the half-maximal effective concentration (EC50) is 8.73 µM and the inhibitory constant (Ki) came out at 7.47 µM.

Turning to `CNC[C@H](CC1CCCCC1)NC[C@H](Cc1ccccc1)NCCC12CC3CC(CC(C3)C1)C2`, the EC50 was > 30 µM (inactive).

For `COc1ccc2nc(C)cc(N/N=C/c3ccc(F)cc3)c2c1`, the EC50 was 8.75 µM and the Ki came out at 7.49 µM.

For the compound `COc1ccc(N2CC(C(=O)Nc3nnc(SCc4ccccn4)s3)CC2=O)cc1` (stereo not drawn), the EC50 is > 30 µM (inactive).

`NC(=NCCCCCCN=C(N)/N=C(\N)Nc1ccc(Cl)cc1)/N=C(\N)Nc1ccc(Cl)cc1`: the EC50 was > 30 µM (inactive).
